SMILES strings stand for the structures. Like-named read-outs stand apart in the source and are kept apart here.

Assay type in all cases: cell-based, Human
One assay concerns Mino. As to the kind of experiment: CCK-8 tumor cell proliferation, Mino. The following applies: Homo sapiens; Table 18, FAK inhibitor based; Mino; read-out: IC50 inhibiting proliferation of tumor cells, Mino. Put shortly:
(§1)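 STR-authenticated, mycoplasma-negative cells were cultured at 37 °C with 5% CO2. One day after plating, they were treated with a 5-fold serial dilution of compound (10 points, highest 10 μM). CCK-8 was used to assess viability, giving IC50 values.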

The next assay has as its system CCRF-CEM. The assay is described as follows: CCK-8 tumor cell proliferation, CCRF-CEM. Particulars: CCRF-CEM, read-out: IC50 inhibiting proliferation of tumor cells, CCRF-CEM. Put shortly: as §1
In another assay the test system is SW620. The assay is described as follows: CCK-8 tumor cell proliferation, SW620. The following applies: SW620, read-out: IC50 inhibiting proliferation of tumor cells, SW620. An outline of the steps: as §1
A further assay concerns SR. The assay is described as follows: CCK-8 tumor cell proliferation, SR. The following applies: Homo sapiens; Table 18, FAK inhibitor based; SR; read-out: IC50 inhibiting proliferation of tumor cells, SR. An outline of the steps:
as §1

The test system of a further assay is PC-9. The assay is described as follows: CCK-8 tumor cell proliferation, PC-9. The following applies: Homo sapiens; Table 18, FAK inhibitor based; PC-9; read-out: IC50 inhibiting proliferation of tumor cells, PC-9.
A further assay concerns HGC-27. As to the kind of experiment: CCK-8 tumor cell proliferation, HGC-27. The following applies: Homo sapiens; Table 18, FAK inhibitor based; HGC-27; read-out: IC50 inhibiting proliferation of tumor cells, HGC-27. The procedure:
(§2) The tumor cells used herein were cultured in a cell culture medium listed in table 4 at 37° C. in an incubator with 5% CO2. Prior to experimentation, all cells used were correctly identified by STR profiling, and tested negative for mycoplasma through routine screenings.
(§3) IC50 values of the compounds of the present disclosure (including the compounds in Tables 1 and 3, and compounds of examples) were measured using the Meilun Cell Counting Kit-8 kit from Dalian Meilun Biotech Co., Ltd. Assay details are as follows: tumor cells were seeded in a 96-well plate at a density listed in Table 5. After 24 h, 100 μL of the inoculated cells were treated with 0.5 μL of the compounds of the present disclosure (including the compounds in Tables 1 and 3, and compounds of examples) at 10 different successively decreasing concentrations (starting at the highest concentration of 10 μM; 5-fold serial dilutions). After the cells were treated with the compounds of the present disclosure for a period of time, the cell viability detection reagent was added to the culture medium for cell viability assessment according to the instructions provided with the CCK-8 kit. […] The growth inhibition of the compounds of the present disclosure on cells was plotted by Prism Graphpad software, and the IC50 values of the compounds of the present disclosure were calculated therefrom.

Another assay deals with MDA-MB-231. The assay is described as follows: CCK-8 tumor cell proliferation, MDA-MB-231. Particulars: Homo sapiens; Table 18, FAK inhibitor based; MDA-MB-231; read-out: IC50 inhibiting proliferation of tumor cells, MDA-MB-231. Put shortly: as §1
For a further assay, the system named is SU-DHL-4. As to the kind of experiment: CCK-8 tumor cell proliferation, SU-DHL-4. Particulars: Table 19, IRAK4 inhibitor based, read-out: IC50 inhibiting proliferation of tumor cells, SU-DHL-4. The procedure: as §2, §3
The test system of another assay is Jurkat. As to the kind of experiment: CCK-8 tumor cell proliferation, Jurkat. The following applies: Table 19, IRAK4 inhibitor based, read-out: IC50 inhibiting proliferation of tumor cells, Jurkat. Put shortly: as §1
The test system of a further assay is LNcap. As to the kind of experiment: CCK-8 tumor cell proliferation, LNcap. The following applies: Table 19, IRAK4 inhibitor based, Lncap, read-out: IC50 inhibiting proliferation of tumor cells, Lncap. An outline of the steps: as §1
The next assay relates to CAL-62. The assay is described as follows: CCK-8 tumor cell proliferation, CAL-62. The following applies: Table 19, IRAK4 inhibitor based, CAL-62, read-out: IC50 inhibiting proliferation of tumor cells, CAL-62. An outline of the steps: as §1
Setting [1] is: Homo sapiens, Table 18, FAK inhibitor based.
Setting [2] is: Homo sapiens, SW-620, Table 18, FAK inhibitor based.
Where [3] appears, read: Table 19, IRAK4 inhibitor based.
Where [4] appears, read: Homo sapiens, Table 19, IRAK4 inhibitor based.
Setting [5] is: Homo sapiens, SW-620, Table 19, IRAK4 inhibitor based.

Take `CNC(=O)c1ccccc1Nc1cc(Nc2ccc(N3CCC(N4CCN(Cc5ccc6c(c5)CN(C5CCC(=O)NC5=O)C6=O)CC4)CC3)cc2OC)ncc1C(F)(F)F` (centres unmarked) [GT-03266, 2-((2-((4-(4-(4-((2-(2,6-dioxopiperidin-3-yl)-1-oxoisoindolin-5-yl)methyl)piperazin-1-yl)piperidin-1-yl)-2-methoxyphenyl)amino)-5-(trifluoromethyl)pyridin-4-yl)amino)-N-methylbenzamide]: the IC50 lay within 1000 to 5000 nM in the assay with Mino; 100 to 500 nM in the assay with CCRF-CEM (setting [1]); 100 to 500 nM in the assay on SW620 (setting [2]); 50 to 100 nM in the assay with SR; 100 to 500 nM with PC-9; 500 to 1000 nM in the assay on HGC-27. Besides, the IC50 with MDA-MB-231 fell in the range of 100 to 500 nM.
Regarding `CNC(=O)c1ccccc1Nc1cc(Nc2ccc(N3CCOCC3)cc2OC)ncc1C(F)(F)F` [PND-1186, reference compound], the IC50 in the assay on Mino is 500 to 1000 nM; with CCRF-CEM (setting [1]) it was 500 to 1000 nM; in the assay with SW620 (setting [2]) it was less than 50 nM; in the assay on SR, 100 to 500 nM; in the assay with PC-9, 500 to 1000 nM; in the assay on HGC-27 it was 1000 to 5000 nM. Further, in the assay on MDA-MB-231, the IC50 fell in the range of 1000 to 5000 nM.
Take `CNC(=O)c1ccccc1Nc1cc(Nc2ccc(N3CCC(N4CCN(Cc5cc6c(cc5F)C(=O)N(C5CCC(=O)NC5=O)C6)CC4)CC3)cc2OC)ncc1C(F)(F)F` (centres unmarked) [GT-03596, 2-((2-((4-(4-(4-((2-(2,6-dioxopiperidin-3-yl)-6-fluoro-1-oxoisoindolin-5-yl)methyl)piperazin-1-yl)piperidin-1-yl)-2-methoxyphenyl)amino)-5-(trifluoromethyl)pyridin-4-yl)amino)-N-methylbenzamide]: the IC50 with CCRF-CEM (setting [1]) fell in the range of 100 to 500 nM; in the assay with SR it was 50 to 100 nM; in the assay with PC-9, 1000 to 5000 nM; in the assay on HGC-27 it was 500 to 1000 nM; in the assay with MDA-MB-231, 500 to 1000 nM.
Regarding `CC(C)Nc1cc(-n2ccc3cc(C#N)cnc32)ncc1C(=O)N[C@H]1CC[C@H](C(=O)NCc2ccc3c(c2)CN(C2CCC(=O)NC2=O)C3=O)CC1` (some centres unmarked) [GT-04077, 6-(5-cyano-1H-pyrrolo[2,3-b]pyridin-1-yl)-N-((1r,4r)-4-(((2-(2,6-dioxopiperidin-3-yl)-1-oxoisoindolin-5-yl)methyl)carbamoyl)cyclohexyl)-4-(isopropylamino)nicotinamide], the IC50 was less than 50 nM in the assay on CCRF-CEM (setting [3]); 100 to 500 nM in the assay on SW620 (setting [3]); 500 to 1000 nM in the assay on SU-DHL-4; less than 50 nM in the assay with Jurkat; 100 to 500 nM in the assay on LNcap; less than 50 nM in the assay with CAL-62.
In the case of `O=C1CCC(N2Cc3cc(CN4CCC(n5cc(NC(=O)c6coc(-c7ccnc(NCC8CC8)c7)n6)c(C(F)F)n5)CC4)cc(F)c3C2=O)C(=O)N1` (centres unmarked) [GT-04172, 2-(2-((cyclopropylmethyl)amino)pyridin-4-yl)-N-(3-(difluoromethyl)-1-(1-((2-(2,6-dioxopiperidin-3-yl)-7-fluoro-1-oxoisoindolin-5-yl)methyl)piperidin-4-yl)-1H-pyrazol-4-yl)oxazole-4-carboxamide], the IC50 is less than 50 nM in the assay with CCRF-CEM (setting [4]); less than 50 nM in the assay with SW620 (setting [5]); 100 to 500 nM in the assay with SU-DHL-4 (Homo sapiens); less than 50 nM with Jurkat (Homo sapiens); less than 50 nM in the assay on LNcap (Homo sapiens); less than 50 nM with CAL-62 (Homo sapiens).
As to `O=C1CCC(N2Cc3cc(CN4CCC(n5cc(NC(=O)c6coc(-c7ccnc(NCC(F)(F)F)c7)n6)c(C(F)F)n5)CC4)ccc3C2=O)C(=O)N1` (centres unmarked) [GT-04120, N-(3-(difluoromethyl)-1-(1-((2-(2,6-dioxopiperidin-3-yl)-1-oxoisoindolin-5-yl)methyl)piperidin-4-yl)-1H-pyrazol-4-yl)-2-(2-((2,2,2-trifluoroethyl)amino)pyridin-4-yl)oxazole-4-carboxamide], the IC50 in the assay on CCRF-CEM (setting [4]), in the assay with SW620 (setting [5]), in the assay on SU-DHL-4 (Homo sapiens), in the assay on Jurkat (Homo sapiens), in the assay on LNcap (Homo sapiens) and in the assay on CAL-62 (Homo sapiens) was less than 50 nM in each case.
Turning to `CNC(=O)c1ccccc1Nc1cc(Nc2ccc(N3CCC(N4CCN(Cc5ccc6c(c5F)CN(C5CCC(=O)NC5=O)C6=O)CC4)CC3)cc2OC)ncc1C(F)(F)F` (centres unmarked) [GT-03595, 2-((2-((4-(4-(4-((2-(2,6-dioxopiperidin-3-yl)-4-fluoro-1-oxoisoindolin-5-yl)methyl)piperazin-1-yl)piperidin-1-yl)-2-methoxyphenyl)amino)-5-(trifluoromethyl)pyridin-4-yl)amino)-N-methylbenzamide], the IC50 with CCRF-CEM (setting [1]) is 100 to 500 nM; in the assay on SR, less than 50 nM; in the assay with PC-9 it was 500 to 1000 nM; in the assay on HGC-27, 100 to 500 nM; in the assay with MDA-MB-231, 100 to 500 nM.
Consider `O=C1CCC(N2Cc3cc(CN4CCC(n5cc(NC(=O)c6coc(-c7ccnc(NCC(F)(F)F)c7)n6)c(C(F)F)n5)CC4)cc(F)c3C2=O)C(=O)N1` (centres unmarked) [GT-04099, N-(3-(difluoromethyl)-1-(1-((2-(2,6-dioxopiperidin-3-yl)-7-fluoro-1-oxoisoindolin-5-yl)methyl)piperidin-4-yl)-1H-pyrazol-4-yl)-2-(2-((2,2,2-trifluoroethyl)amino)pyridin-4-yl)oxazole-4-carboxamide], for which the IC50 in the assay with CCRF-CEM (setting [4]) was less than 50 nM; with SW620 (setting [5]), less than 50 nM; with SU-DHL-4 (Homo sapiens), 100 to 500 nM; in the assay on Jurkat (Homo sapiens), less than 50 nM; in the assay on LNcap (Homo sapiens), less than 50 nM; in the assay on CAL-62 (Homo sapiens) it was less than 50 nM.
For the compound `CNC(=O)c1ccccc1Nc1cc(Nc2ccc(N3CCC(N4CCN(Cc5cc(F)c6c(c5)CN(C5CCC(=O)NC5=O)C6=O)CC4)CC3)cc2OC)ncc1C(F)(F)F` (centres unmarked) [GT-03597, 2-((2-((4-(4-(4-((2-(2,6-dioxopiperidin-3-yl)-7-fluoro-1-oxoisoindolin-5-yl)methyl)piperazin-1-yl)piperidin-1-yl)-2-methoxyphenyl)amino)-5-(trifluoromethyl)pyridin-4-yl)amino)-N-methylbenzamide], the IC50 was 100 to 500 nM in the assay on CCRF-CEM (setting [1]); 50 to 100 nM with SR; 500 to 1000 nM with PC-9; 500 to 1000 nM with HGC-27; 500 to 1000 nM in the assay with MDA-MB-231.
`CNC(=O)c1ccccc1Nc1cc(Nc2ccc(N3CCC(NCc4ccc5c(c4)CN(C4CCC(=O)NC4=O)C5=O)CC3)cc2OC)ncc1C(F)(F)F` (centres unmarked) [GT-03213, 2-((2-((4-(4-(((2-(2,6-dioxopiperidin-3-yl)-1-oxoisoindolin-5-yl)methyl)amino)piperidin-1-yl)-2-methoxyphenyl)amino)-5-(trifluoromethyl)pyridin-4-yl)amino)-N-methylbenzamide]: the IC50 in the assay on CCRF-CEM (setting [1]) is 100 to 500 nM; with SW620 (setting [2]) it was 500 to 1000 nM; in the assay on SR it was less than 50 nM; with PC-9, 500 to 1000 nM; in the assay with HGC-27 it was 500 to 1000 nM; in the assay with MDA-MB-231 it was less than 50 nM.

The values above are taken from patent publication US20260199323A1, “LIGAND COMPOUNDS FOR E3 UBIQUITIN LIGASE, PROTEIN DEGRADERS DEVELOPED ON BASIS OF LIGAND COMPOUNDS, AND USES THEREOF” (GLUETACS THERAPEUTICS (SHANGHAI) CO., LTD., priority 2021, published 2026).
